Laboratory results: US11066396B2 (priority 2016, dated 2021)

Experiments:
[1] = target: HDAC1 (Homo sapiens (Human), UniProt Q13547); settings: read-out: HDAC1 IC50
Description: Assay protocol: In brief, compounds were titrated in 100% DMSO via accoustic dispensing directly to the assay plate using the ECHO 550 [Labcyte]. HDAC enzymes at the concentrations indicated above were added in assay buffer to the assay plates containing the compounds using a Combi [Thermo Scientific]. The wells were mixed, and the plates were allowed to pre-incubate at ambient temperature for 3 h. After the 3 h, the appropriate substrate, at the concentrations indicated above, was added to the wells using a Combi. The wells were mixed, and the plates were allowed to incubate at ambient temperature for 1 h. After the 1 h, the appropriate Developer/stop solution was added to the wells using a Combi. The wells were mixed, and the plates were allowed to incubate at ambient temperature for 1 h. […] Data were analyzed using 4P curve fitting with Activity Base [IDBS] software.

[2] = target: HDAC8 (Homo sapiens (Human), UniProt Q9BY41); settings: read-out: HDAC8 IC50
Sequence of HDAC8 (Q9BY41 whole entry): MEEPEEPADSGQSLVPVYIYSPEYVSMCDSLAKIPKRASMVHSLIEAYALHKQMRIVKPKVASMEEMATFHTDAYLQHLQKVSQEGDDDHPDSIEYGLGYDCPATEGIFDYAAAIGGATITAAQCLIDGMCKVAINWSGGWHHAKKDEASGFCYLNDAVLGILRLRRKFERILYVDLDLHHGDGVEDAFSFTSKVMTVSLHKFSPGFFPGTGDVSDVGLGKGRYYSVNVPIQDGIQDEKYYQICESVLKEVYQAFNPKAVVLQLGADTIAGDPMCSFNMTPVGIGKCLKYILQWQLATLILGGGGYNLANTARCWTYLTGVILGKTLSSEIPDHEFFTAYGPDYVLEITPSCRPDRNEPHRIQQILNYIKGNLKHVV

Sequence of HDAC1 (Q13547 whole entry): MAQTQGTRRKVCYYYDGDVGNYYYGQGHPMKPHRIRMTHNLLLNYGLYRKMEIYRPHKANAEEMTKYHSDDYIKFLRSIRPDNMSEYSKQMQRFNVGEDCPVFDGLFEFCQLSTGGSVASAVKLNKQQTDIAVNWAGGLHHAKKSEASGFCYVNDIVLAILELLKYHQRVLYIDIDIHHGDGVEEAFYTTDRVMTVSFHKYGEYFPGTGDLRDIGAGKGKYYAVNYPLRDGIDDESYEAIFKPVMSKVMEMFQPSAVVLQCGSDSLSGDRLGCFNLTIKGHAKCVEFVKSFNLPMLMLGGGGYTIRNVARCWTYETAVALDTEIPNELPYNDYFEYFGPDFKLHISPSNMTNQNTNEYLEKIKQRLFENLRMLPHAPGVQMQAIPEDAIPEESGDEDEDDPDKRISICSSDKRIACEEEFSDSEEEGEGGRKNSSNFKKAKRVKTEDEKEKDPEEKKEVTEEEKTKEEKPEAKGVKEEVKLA

Structure (SMILES): FC(F)(F)c1nc(-c2ccc(CNc3ncccn3)cc2)no1 [Example 386, N-{4-[5-(trifluoromethyl)-1,2,4-oxadiazol-3-yl]benzyl}pyrimidin-2-amine]
- IC50 [1]: 5300 nM
- IC50 [2]: 3900 nM

Structure (SMILES): Cn1ccc(NCc2ccc(-c3noc(C(F)(F)F)n3)cn2)cc1=O [Example 358, 1-methyl-4-[({5-[5-(trifluoromethyl)-1,2,4-oxadiazol-3-yl]pyridin-2-yl}methyl)amino]pyridin-2(1H)-one]
- IC50 [1]: 890 nM
- IC50 [2]: 2400 nM

Structure (SMILES): O=C1COC[C@@H](c2ccccc2)N1c1ccc(-c2noc(C(F)(F)F)n2)cc1F [Example 161, (R)-4-(2-fluoro-4-(5-(trifluoromethyl)-1,2,4-oxadiazol-3-yl)phenyl)-5-phenylmorpholin-3-one]
- IC50 [1]: 390 nM
- IC50 [2]: 2100 nM

Structure (SMILES): O=C1CCC(c2ccc(-c3noc(C(F)(F)F)n3)cc2)N1c1ccccc1F (racemic) [Example 320, 1-(2-fluorophenyl)-5-{4-[5-(trifluoromethyl)-1,2,4-oxadiazol-3-yl]phenyl}pyrrolidin-2-one]
- IC50 [1]: 880 nM
- IC50 [2]: 12000 nM

Structure (SMILES): FC(F)(F)c1nc(-c2ccnc(OCc3cnn4c3OCCC4)c2)no1 [Example 209, 3-[({4-[5-(trifluoromethyl)-1,2,4-oxadiazol-3-yl]pyridin-2-yl}oxy)methyl]-6,7-dihydro-5H-pyrazolo[5,1-b][1,3]oxazine]
- IC50 [1]: 6800 nM
- IC50 [2]: 4400 nM

Structure (SMILES): FC(F)(F)c1nc(-c2ccc(CNc3cncnc3)cc2)no1 [Example 419, N-{4-[5-(trifluoromethyl)-1,2,4-oxadiazol-3-yl]benzyl}pyrimidin-5-amine]
- IC50 [1]: 2600 nM
- IC50 [2]: 1900 nM

Structure (SMILES): O=c1ccc2ccc(Br)cc2n1Cc1ccc(-c2noc(C(F)(F)F)n2)cc1 [Example 321, 7-bromo-1-{4-[5-(trifluoromethyl)-1,2,4-oxadiazol-3-yl]benzyl}quinolin-2(1H)-one]
- IC50 [1]: 210 nM
- IC50 [2]: 2600 nM

Structure (SMILES): Cc1n[nH]c(CC(=O)N(Cc2ccc(-c3noc(C(F)(F)F)n3)cn2)c2cccc(F)c2)n1 [Example 393, N-(3-fluorophenyl)-2-(3-methyl-1H-1,2,4-triazol-5-yl)-N-({5-[5-(trifluoromethyl)-1,2,4-oxadiazol-3-yl]pyridin-2-yl}methyl)acetamide]
- IC50 [1]: 410 nM
- IC50 [2]: 3400 nM

Structure (SMILES): Fc1ccc(C2COCCN2c2ccc(-c3noc(C(F)(F)F)n3)cn2)cc1 (racemic) [Example 142, 3-(4-fluorophenyl)-4-(5-(5-(trifluoromethyl)-1,2,4-oxadiazol-3-yl)pyridin-2-yl)morpholine]
- IC50 [1]: 500 nM
- IC50 [2]: 1900 nM

Structure (SMILES): O=c1ccc2ccccc2n1Cc1ccc(-c2noc(C(F)(F)F)n2)cc1 [Example 28, 1-(4-(5-(Trifluoromethyl)-1,2,4-oxadiazol-3-yl)benzyl)quinolin-2(1H)-one]
- IC50 [1]: 760 nM
- IC50 [2]: 1600 nM

Structure (SMILES): FC(F)(F)c1nc(-c2ccc(CNc3cnoc3)nc2)no1 [Example 434, N-({5-[5-(trifluoromethyl)-1,2,4-oxadiazol-3-yl]pyridin-2-yl}methyl)isoxazol-4-amine]
- IC50 [1]: 1100 nM
- IC50 [2]: 1200 nM

Structure (SMILES): CC1(Cc2ccc(-c3noc(C(F)(F)F)n3)cc2)C(=O)Nc2ccc(F)cc21 (racemic) [Example 346, 5-fluoro-3-methyl-3-{4-[5-(trifluoromethyl)-1,2,4-oxadiazol-3-yl]benzyl}-1,3-dihydro-2H-indol-2-one]
- IC50 [1]: 1200 nM
- IC50 [2]: 15000 nM

Structure (SMILES): Cc1noc(C2CCCC(=O)N2c2ccc(-c3noc(C(F)(F)F)n3)cc2)n1 (racemic) [Example 48, 6-(3-methyl-1,2,4-oxadiazol-5-yl)-1-(4-(5-(trifluoromethyl)-1,2,4-oxadiazol-3-yl)phenyl)piperidin-2-one]
- IC50 [1]: 2200 nM
- IC50 [2]: 1800 nM

Structure (SMILES): FC(F)(F)c1nc(-c2ccnc(OC[C@@H]3C[C@@H]3c3ncccn3)c2)no1 [Example 424, 2-{(1S,2R)-2-[({4-[5-(trifluoromethyl)-1,2,4-oxadiazol-3-yl]pyridin-2-yl}oxy)methyl]cyclopropyl}pyrimidine]
- IC50 [1]: 2600 nM
- IC50 [2]: 320 nM

Structure (SMILES): FC(F)(F)c1nc(-c2ccc(N[C@@H]3CCCC[C@H]3c3ccccc3)nc2)no1 [Example 26, N-((1R,2S)-2-Phenylcyclohexyl)-5-(5-(trifluoromethyl)-1,2,4-oxadiazol-3-yl)pyridin-2-amine]
- IC50 [1]: 4600 nM
- IC50 [2]: 26000 nM

Structure (SMILES): FC(F)(F)c1nc(-c2ccc(CNc3cncnc3)nc2)no1 [Example 369, N-({5-[5-(trifluoromethyl)-1,2,4-oxadiazol-3-yl]pyridin-2-yl}methyl)pyrimidin-5-amine]
- IC50 [1]: 930 nM
- IC50 [2]: 960 nM

Structure (SMILES): CC(C)N1CCCC(C(=O)N(Cc2ccc(-c3noc(C(F)(F)F)n3)cn2)c2cccc(F)c2)C1 (racemic) [Example 61, N-(3-fluorophenyl)-1-isopropyl-N-((5-(5-(trifluoromethyl)-1,2,4-oxadiazol-3-yl)pyridin-2-yl)methyl)piperidine-3-carboxamide]
- IC50 [1]: 260 nM
- IC50 [2]: 2000 nM

Structure (SMILES): FC(F)(F)c1nc(-c2ccnc(OC3CCCc4ccc(Cl)nc43)c2)no1 (racemic) [Example 226, 2-chloro-8-({4-[5-(trifluoromethyl)-1,2,4-oxadiazol-3-yl]pyridin-2-yl}oxy)-5,6,7,8-tetrahydroquinoline]
- IC50 [1]: 1100 nM
- IC50 [2]: 850 nM

Structure (SMILES): CN1CCOC(CNCc2ccc(-c3noc(C(F)(F)F)n3)cn2)C1 (racemic) [Example 452, 1-(4-methylmorpholin-2-yl)-N-({5-[5-(trifluoromethyl)-1,2,4-oxadiazol-3-yl]pyridin-2-yl}methyl)methanamine]
- IC50 [1]: 2800 nM
- IC50 [2]: 2400 nM

Structure (SMILES): Cc1cccc(CCOc2cc(-c3noc(C(F)(F)F)n3)ccn2)n1 [Example 139, 3-(2-(2-(6-methylpyridin-2-yl)ethoxy)pyridin-4-yl)-5-(trifluoromethyl)-1,2,4-oxadiazole]
- IC50 [1]: 3400 nM
- IC50 [2]: 4600 nM

Structure (SMILES): Cc1nonc1CC(=O)N(Cc1ccc(-c2noc(C(F)(F)F)n2)cn1)c1cccc(F)c1 [Example 62, N-(3-fluorophenyl)-2-(4-methyl-1,2,5-oxadiazol-3-yl)-N-((5-(5-(trifluoromethyl)-1,2,4-oxadiazol-3-yl)pyridin-2-yl)methyl)acetamide]
- IC50 [1]: 480 nM
- IC50 [2]: 3500 nM

Structure (SMILES): O=C(CC1COCCO1)N(Cc1ccc(-c2noc(C(F)(F)F)n2)cc1)c1cccc(C(F)(F)F)c1 (racemic) [Example 95, 2-(1,4-dioxan-2-yl)-N-(4-(5-(trifluoromethyl)-1,2,4-oxadiazol-3-yl)benzyl)-N-(3-(trifluoromethyl)phenyl)acetamide]
- IC50 [1]: 1300 nM
- IC50 [2]: 2000 nM

Structure (SMILES): O=C1CCC(c2c(F)cccc2F)N1c1ccc(-c2noc(C(F)(F)F)n2)cc1F (racemic) [Example 314, 5-(2,6-difluorophenyl)-1-{2-fluoro-4-[5-(trifluoromethyl)-1,2,4-oxadiazol-3-yl]phenyl}pyrrolidin-2-one]
- IC50 [1]: 11000 nM
- IC50 [2]: 6500 nM

Structure (SMILES): O=C1C(C2CCOCC2)NC[C@@H](c2cc(F)cc(F)c2)N1c1ccc(-c2noc(C(F)(F)F)n2)cn1 (stereo partly drawn) [Example 38, (6R)-6-(3,5-difluorophenyl)-3-(tetrahydro-2H-pyran-4-yl)-1-(5-(5-(trifluoromethyl)-1,2,4-oxadiazol-3-yl)pyridin-2-yl)piperazin-2-one]
- IC50 [1]: 4300 nM
- IC50 [2]: 16000 nM

Structure (SMILES): COC(=O)N1CC(=O)N(Cc2ccc(-c3noc(C(F)(F)F)n3)cn2)c2ccccc21 [Example 472, methyl 3-oxo-4-({5-[5-(trifluoromethyl)-1,2,4-oxadiazol-3-yl]pyridin-2-yl}methyl)-3,4-dihydroquinoxaline-1(2H)-carboxylate]
- IC50 [1]: 320 nM
- IC50 [2]: 1400 nM

Structure (SMILES): Cc1nccnc1C(=O)N(Cc1ccc(-c2noc(C(F)(F)F)n2)cn1)c1cccc(F)c1 [Example 56, N-(3-fluorophenyl)-3-methyl-N-((5-(5-(trifluoromethyl)-1,2,4-oxadiazol-3-yl)pyridin-2-yl)methyl)pyrazine-2-carboxamide]
- IC50 [1]: 250 nM
- IC50 [2]: 3100 nM

Structure (SMILES): O=C(Cn1ncccc1=O)N(Cc1ccc(-c2noc(C(F)(F)F)n2)cc1)c1cccc(C(F)(F)F)c1 [Example 70, 2-(6-oxopyridazin-1(6H)-yl)-N-(4-(5-(trifluoromethyl)-1,2,4-oxadiazol-3-yl)benzyl)-N-(3-(trifluoromethyl)phenyl)acetamide]
- IC50 [1]: 960 nM
- IC50 [2]: 2200 nM

Structure (SMILES): O=c1ccc2ccccc2n1Cc1ncc(-c2noc(C(F)(F)F)n2)cn1 [Example 474, 1-({5-[5-(trifluoromethyl)-1,2,4-oxadiazol-3-yl]pyrimidin-2-yl}methyl)quinolin-2(1H)-one]
- IC50 [1]: 220 nM
- IC50 [2]: 6000 nM

Structure (SMILES): O=C1CCC(NCc2ccc(-c3noc(C(F)(F)F)n3)cn2)c2ccccc2N1 (racemic) [Example 374, 5-[({5-[5-(trifluoromethyl)-1,2,4-oxadiazol-3-yl]pyridin-2-yl}methyl)amino]-1,3,4,5-tetrahydro-2H-1-benzazepin-2-one]
- IC50 [1]: 3200 nM
- IC50 [2]: 6900 nM

Structure (SMILES): O=C1CC[C@@H](c2nc(-c3ccncc3)no2)N1c1ccc(-c2noc(C(F)(F)F)n2)cc1 [Example 114, (S)-5-(3-(pyridin-4-yl)-1,2,4-oxadiazol-5-yl)-1-(4-(5-(trifluoromethyl)-1,2,4-oxadiazol-3-yl)phenyl)pyrrolidin-2-one]
- IC50 [1]: 82 nM
- IC50 [2]: 270 nM

Structure (SMILES): Fc1cccc(C2COCCN2c2ccc(-c3noc(C(F)(F)F)n3)cn2)c1 (racemic) [Example 137, 3-(3-fluorophenyl)-4-(5-(5-(trifluoromethyl)-1,2,4-oxadiazol-3-yl)pyridin-2-yl)morpholine]
- IC50 [1]: 440 nM
- IC50 [2]: 2300 nM

Structure (SMILES): O=C1CCC[C@@H](c2nc3ccccc3s2)N1c1ccc(-c2noc(C(F)(F)F)n2)cc1 [Example 25, (S)-6-(Benzo[d]thiazol-2-yl)-1-(4-(5-(trifluoromethyl)-1,2,4-oxadiazol-3-1)phenyl)piperidin-2-one]
- IC50 [1]: 220 nM
- IC50 [2]: 740 nM

Structure (SMILES): CC(C)(C)OC(=O)C1COCC(=O)N1c1ccc(-c2noc(C(F)(F)F)n2)c(F)c1 (stereo not drawn) [Example 468, tert-butyl 4-{3-fluoro-4-[5-(trifluoromethyl)-1,2,4-oxadiazol-3-yl]phenyl}-5-oxomorpholine-3-carboxylate]
- IC50 [1]: 940 nM
- IC50 [2]: 5500 nM
